Data reported in patent US20140227335A1 (priority 2012, published 2014).
“Also recorded” adds a separate entry of the source.

Assays:
Jc1 HCVcc = experiment: microbe, parasite or virus in culture; format: cell-based, HCV; details: Hepatitis C virus, Huh7.5, read-out: IC50, inactivation of cell-free HCVcc
HIV-1 (R5 JR-CSF) = experiment: Antiviral effect of PD before, during and after HIV-1 exposure (TZM-bl); format: cell-based
HCVcc [1] = system: HCVcc; set-up: species or system HCV
HIV-1 RU132 [2] = experiment: HIV infectivity assay in TZM-bl cells; format: cell-based; details: RU132 (clade G, R5); for IC50: Human immunodeficiency virus 1, TZM-bl
HIV-1 92UG001 = experiment: Anti-HIV efficacy in fresh human PBMC (reverse transcriptase activity); format: cell-based; details: Human immunodeficiency virus 1, PBMC, 168 h; 92UG001 (clade D, X4/R5); PBMCs, MOI = 0.1, 7 days
HCVcc [3] = format: cell-based, HCV
HIV-1 Jv1083 = experiment: HIV infectivity assay in TZM-bl cells; format: cell-based; details: Jv1083 (clade G, R5); for IC50: Human immunodeficiency virus 1, TZM-bl
HIV-1 92UG024 = experiment: HIV infectivity assay in TZM-bl cells; format: cell-based; details: 92UG024 (clade D, X4); for IC50: Human immunodeficiency virus 1, TZM-bl
HIV-1 92UG029 = experiment: HIV infectivity assay in TZM-bl cells; format: cell-based; details: 92UG029 (clade A, X4); for IC50: Human immunodeficiency virus 1, TZM-bl
VSV-Gpp [4] = system: VSV-Gpp
HIV-1 93IN101 = experiment: HIV infectivity assay in TZM-bl cells; format: cell-based; details: 93IN101 (clade C, R5); for IC50: Human immunodeficiency virus 1, TZM-bl
Sindbis virus (SINV) = experiment: Sindbis virus plaque assay on BHK-J cells; format: cell-based; details: 300 μM PD
HIV-1 clinical isolates = experiment: Anti-HIV efficacy in fresh human PBMC (all isolates, summary); format: cell-based; details: Human immunodeficiency virus 1, PBMC; eight HIV-1 clinical isolates in PBMCs
HIV-1 93IN017 = experiment: HIV infectivity assay in TZM-bl cells; format: cell-based; details: 93IN017 (clade C, X4); for IC50: Human immunodeficiency virus 1, TZM-bl
[5] = system: primary isolates of HIV and SIV; experiment: organism not typed; format: cell-based, HIV-1, HIV-2
Lactobacilli = experiment: Lactobacillus toxicity testing (all strains, summary); format: cell-based; details: 300 μM PD, 37° C., 30 min
Method: (§1) Reference strains of L. crispatus and L. jensenii were obtained from the ATCC (Manassas, Va.) and cultured on Columbia blood agar plates at 35° C. in air enriched with 6% CO2. Bacterial suspensions were prepared in saline or ACES buffer to a density of 2 McFarland units (˜2×10^8 bacteria/mL), and exposed to PD (300 μM) or DMSO (10%) for 30 minutes at 37° C. After incubation, the cells were serially diluted in ACES buffer, pH 7.0 (Sigma-Aldrich, St. Louis, Mo.) and plated on blood agar plates to quantify colony forming unit per mL (CFU/mL)
(§2) Different bacterial strains were incubated with 300 μM PD or solvent DMSO-containing control media at 37° C. for 30 min and plated on blood agar plates to estimate their corresponding colony forming units per ml (CFU/ml). Less than 1 log difference between control and test CFU is considered non-toxic 17.

[6] = as above; format: cell-based; details: Lactobacillus (L. crispatus and L. jensenii), suspensions of vaginal commensal Lactobacillus strains; vaginal commensal bacteria Lactobacilli
Method: as §1, §2

HIV-1 92TH006 = experiment: HIV infectivity assay in TZM-bl cells; format: cell-based; details: 92TH006 (clade E, R5); for IC50: Human immunodeficiency virus 1, TZM-bl
HIV-1 RU132 [7] = experiment: Anti-HIV efficacy in fresh human PBMC (reverse transcriptase activity); format: cell-based; details: Human immunodeficiency virus 1, PBMC, 168 h; RU132 (clade G, R5); PBMCs, MOI = 0.1, 7 days
HIV-20DC310342 = experiment: HIV-2 infectivity assay in TZM-bl cells; format: cell-based; details: Human immunodeficiency virus 2, TZM-bl
VSV-Gpp [8] = format: physicochemical, HIV lentivirus pseudotyped with VSV-G

In the case of `N=C1Sc2ccccc2C2=NCCCN12` [PD, PD 404,182], the IC50 (Jc1 HCVcc) is reported as 11 µM, the “antiviral effect, PD added after virus inoculation” value (HIV-1 (R5 JR-CSF); 10 μM PD, 1, 2, 4 and 8 h post treatment) is reported as “loses its antiviral effect” and the “antiviral effect, extended preincubation of PD with cells” value (HIV-1 (R5 JR-CSF); 10 μM PD, >16 h prior to virus inoculation) is reported as “significantly reduces the compound's antiviral efficacy”. For the same molecule, the “antiviral effect, PD added together with the virus” value (HIV-1 (R5 JR-CSF); 10 μM PD, time zero) was “significantly inhibits HIV-1 infection”, the “antiviral effect, PD added before the virus” value (HIV-1 (R5 JR-CSF); 10 μM PD, up to 8 h before the addition of the virus) was “retains its full potency” and the “time antiviral activity is retained in cell culture prior to the addition of HIV-1” value (HIV-1 (R5 JR-CSF); cell culture at 37° C.) was “at least 8 hours”. It also gave an HCVcc virion lysis (HCVcc [1]) of 27%, an IC50 (HIV-1 RU132 [2]; PD in DMEM + 10% FBS) of 0.7 µM and an IC50 (HIV-1 RU132 [2]; PD in cervical fluids) of 0.9 µM. For the same molecule, the IC50 (HIV-1 RU132 [2]; PD in seminal plasma) was 0.74 µM, the IC90 (HIV-1 RU132 [2]; PD in DMEM + 10% FBS) was 3.1 ± 0.2 µM and the IC90 (HIV-1 RU132 [2]; PD in cervical fluids) was 3.9 ± 0.5 µM. The IC90 (HIV-1 RU132 [2]; PD in seminal plasma) was 3.28 ± 0.22 µM, the IC50 (HIV-1 92UG001) was 1.11 µM and the IC90 (HIV-1 92UG001) was 1.89 µM. For the same molecule, the “inhibition of HCVcc infectivity” value (HCVcc [3]) was > 10 fold, the IC50 (HIV-1 Jv1083; PD in DMEM + 10% FBS) was 1.1 µM and the IC50 (HIV-1 Jv1083; PD in cervical fluids) was 1.5 µM. For the same molecule, the IC50 (HIV-1 Jv1083; PD in seminal plasma) was 1.27 µM, the IC90 (HIV-1 Jv1083; PD in DMEM + 10% FBS) was 3.9 ± 0.3 µM and the IC90 (HIV-1 Jv1083; PD in cervical fluids) was 4.7 ± 0.1 µM. The IC90 (HIV-1 Jv1083; PD in seminal plasma) was 4.22 ± 0.39 µM, the “IC50 (DMEM; IC90 per footnote)” value (HIV-1 92UG024; PD in DMEM + 10% FBS) was 1.4 ± 0.2 µM and the “IC50 (Cervical Fluid; IC90 per footnote)” value (HIV-1 92UG024; PD in cervical fluids) was 1.8 ± 0.2 µM. For the same molecule, the “IC50 (Seminal Plasma; IC90 per footnote)” value (HIV-1 92UG024; PD in seminal plasma) was 1.58 ± 0.2 µM, the IC50 (HIV-1 92UG024; PD in DMEM + 10% FBS) was 3.33 µM and the IC50 (HIV-1 92UG024; PD in cervical fluids) was 0.55 µM. The IC50 (HIV-1 92UG024; PD in seminal plasma) was 0.42 µM, the IC90 (HIV-1 92UG029; PD in DMEM + 10% FBS) was 4.4 ± 0.2 µM and the IC90 (HIV-1 92UG029; PD in cervical fluids) was 5.3 ± 0.3 µM. For the same molecule, the IC90 (HIV-1 92UG029; PD in seminal plasma) was 4.71 ± 0.26 µM, the IC50 (HIV-1 92UG029; PD in DMEM + 10% FBS) was 1.18 µM and the IC50 (HIV-1 92UG029; PD in cervical fluids) was 1.47 µM. The IC50 (HIV-1 92UG029; PD in seminal plasma) was 1.33 µM, the “activity loss in cervical fluid” value (VSV-Gpp [4]) was “no activity loss” and the “IC50 (DMEM; IC90 per footnote)” value (HIV-1 93IN101; PD in DMEM + 10% FBS) was 5.1 ± 0.3 µM. For the same molecule, the “IC50 (Cervical Fluid; IC90 per footnote)” value (HIV-1 93IN101; PD in cervical fluids) was 5.5 ± 0.2 µM, the “IC50 (Seminal Plasma; IC90 per footnote)” value (HIV-1 93IN101; PD in seminal plasma) was 5.36 ± 0.37 µM and the IC50 (HIV-1 93IN101; PD in DMEM + 10% FBS) was 1.5 µM. For the same molecule, the IC50 (HIV-1 93IN101; PD in cervical fluids) was 1.8 µM, the IC50 (HIV-1 93IN101; PD in seminal plasma) was 1.76 µM and the “effect on infectivity of SINV” value (Sindbis virus (SINV)) was “no significant inhibitory effect”. For the same molecule, the IC50 (HIV-1 clinical isolates) was 0.55 µM, the “IC50 (DMEM; IC90 per footnote)” value (HIV-1 93IN017; PD in DMEM + 10% FBS) was 1.9 ± 0.2 µM and the “IC50 (Cervical Fluid; IC90 per footnote)” value (HIV-1 93IN017; PD in cervical fluids) was 2.4 ± 0.2 µM. For the same molecule, the “IC50 (Seminal Plasma; IC90 per footnote)” value (HIV-1 93IN017; PD in seminal plasma) was 2.09 ± 0.19 µM, the IC50 (HIV-1 93IN017; PD in DMEM + 10% FBS) was 0.4 µM and the IC50 (HIV-1 93IN017; PD in cervical fluids) was 0.7 µM. The IC50 (HIV-1 93IN017; PD in seminal plasma) was 0.45 µM, the “effect of seminal plasma on PD's anti-HIV activity” value [5] was “does not negatively impact PD's anti-HIV activity” and the IC50 ([5]; Human immunodeficiency virus 1, TZM-bl, read-out: IC50 range over tested subtypes of HIV-1) was 0.42 to 1.96 µM. It also gave an IC90 ([5]; Human immunodeficiency virus 1, TZM-bl, read-out: IC90 range over tested subtypes of HIV-1) of 1.58 to 7.19 µM, an IC50 ([5]; TZM-bl) of ~1 µM and an IC50 ([5]; TZM-bl, read-out: IC50 range) of 0.33 to 1.8 µM. For the same molecule, the IC90 ([5]; TZM-bl, read-out: IC90 range) was 1.4 to 6.6 µM, the IC50 ([5]; read-out: IC50 range) was 0.61 to 2.3 µM and the IC90 ([5]; read-out: IC90 range) was 1.8 to 7.5 µM. The “effect on Lactobacillus strains” value (Lactobacilli) was “no adverse effect on all strains of bacteria tested”, the CC50 at 30 min [6] was > 300 µM and the “IC50 (DMEM; IC90 per footnote)” value (HIV-1 92TH006; PD in DMEM + 10% FBS) was 6.6 ± 0.4 µM. For the same molecule, the “IC50 (Cervical Fluid; IC90 per footnote)” value (HIV-1 92TH006; PD in cervical fluids) was 7.6 ± 0.6 µM, the “IC50 (Seminal Plasma; IC90 per footnote)” value (HIV-1 92TH006; PD in seminal plasma) was 6.73 ± 0.51 µM and the IC50 (HIV-1 92TH006; PD in DMEM + 10% FBS) was 1.8 µM. For the same molecule, the IC50 (HIV-1 92TH006; PD in cervical fluids) was 2.3 µM, the IC50 (HIV-1 92TH006; PD in seminal plasma) was 1.96 µM and the IC50 (HIV-1 RU132 [7]) was 0.2 µM. For the same molecule, the IC90 (HIV-1 RU132 [7]) was 0.53 µM, the IC50 (HIV-20DC310342) was 1.8 µM and the “long-term stability (antiviral potency)” value (VSV-Gpp [8]; pH 4) was “retains full antiviral potency; also recorded: retains its full potency”. For the same molecule, the long-term stability (VSV-Gpp [8]; pH 7) was “stable only at room temperature and 4 °C; also recorded: significantly compromised PD activity after 2 weeks” and the “stability in HEC gel” value (VSV-Gpp [8]; pH 7) was “not stable”.
